Assay results reported in ChEMBL document CHEMBL3994561 (Medchemcomm, 2016).
Activity calls are given as the source filed them. No cut-off for these calls is given here.

How the values were obtained:
MCF7 [1] = experiment: Cytotoxicity against human MCF7 cells after 48 hrs by MTT assay; assay type: functional, cell-based; details: MCF7, 48 h
HL-60 = experiment: Cytotoxicity against human HL60 cells after 48 hrs by MTT assay; assay type: functional, cell-based; details: HL-60, 48 h
NALM-6 = experiment: Cytotoxicity against human NALM6 cells after 48 hrs by MTT assay; assay type: functional, cell-based; details: NALM-6, 48 h
[2] = Selectivity index, ratio of IC50 for human MCF7 cells to IC50 for human MCF10A cells; assay type: functional
MCF7 [3] = experiment: Disruption of mitochondrial membrane potential in human MCF7 cells assessed as collapse of the mitochondrial membrane potential at 12.76 +/- 0.46 uM after 24 hrs by JC10 staining-based flow cytometric method (reference value: 23.9%); assay type: functional
[4] = Selectivity index, ratio of IC50 for human MCF10A cells to IC50 for human NALM6 cells; assay type: functional
MCF7 [5] = experiment: Induction of apoptosis in human MCF7 cells assessed as early apoptotic cells at 12.76 +/- 0.46 uM after 24 hrs by annexin V-FITC/propidium iodide staining-based flow cytometric method (reference value: 1.7%); assay type: functional
MCF7 [6] = experiment: Induction of apoptosis in human MCF7 cells assessed as upregulation of Bax mRNA level at 12.76 +/- 0.46 uM by quantitative real-time PCR method; assay type: functional, cell-based
[7] = Selectivity index, ratio of IC50 for human MCF10A cells to IC50 for human MCF7 cells; assay type: functional
MCF7 [8] = experiment: Induction of apoptosis in human MCF7 cells assessed as late apoptotic cells at 12.76 +/- 0.46 uM after 24 hrs by annexin V-FITC/propidium iodide staining-based flow cytometric method (reference value: 10.1 +/- 0.2%); assay type: functional
MCF7 [9] = experiment: Induction of apoptosis in human MCF7 cells assessed as upregulation of caspase-3 mRNA level at 12.76 +/- 0.46 uM by quantitative real-time PCR method; assay type: functional, cell-based
MCF7 [10] = experiment: Disruption of mitochondrial membrane potential in human MCF7 cells assessed as intact mitochondrial membrane at 12.76 +/- 0.46 uM after 24 hrs by JC10 staining-based flow cytometric method (reference value: 76.1%); assay type: functional
HUVEC = experiment: Cytotoxicity against human HUVEC cells after 48 hrs by MTT assay; assay type: cell-based
MCF-10A = experiment: Cytotoxicity against human MCF10A cells after 48 hrs by MTT assay; assay type: cell-based
MCF7 [11] = experiment: Induction of apoptosis in human MCF7 cells assessed as necrotic cells at 12.76 +/- 0.46 uM after 24 hrs by annexin V-FITC/propidium iodide staining-based flow cytometric method (reference value: 4.1%); assay type: functional
MCF7 [12] = experiment: Cell cycle arrest in human MCF7 cells assessed as accumulation at S phase at 12.76 +/- 0.46 uM after 24 hrs by propidium iodide staining-based flow cytometric analysis (reference value: 25.9%); assay type: functional
MCF7 [13] = experiment: Cell cycle arrest in human MCF7 cells assessed as accumulation at sub G0/G1 phase at 12.76 +/- 0.46 uM after 24 hrs by propidium iodide staining-based flow cytometric analysis (reference value: 1.3%); assay type: functional
MCF7 [14] = experiment: Cell cycle arrest in human MCF7 cells assessed as accumulation at G2/M phase at 12.76 +/- 0.46 uM after 24 hrs by propidium iodide staining-based flow cytometric analysis (reference value: 20.3%); assay type: functional
MCF7 [15] = experiment: Cell cycle arrest in human MCF7 cells assessed as accumulation at G0/G1 phase at 12.76 +/- 0.46 uM after 24 hrs by propidium iodide staining-based flow cytometric analysis (reference value: 52.2%); assay type: functional
MCF7 [16] = experiment: Induction of apoptosis in human MCF7 cells assessed as viable cells at 12.76 +/- 0.46 uM after 24 hrs by annexin V-FITC/propidium iodide staining-based flow cytometric method (reference value: 83.4%); assay type: functional
MCF7 [17] = experiment: Cytotoxicity against human MCF7 cells after 24 hrs by MTT assay; assay type: functional, cell-based; details: MCF7, 24 h
MCF7 [18] = experiment: Induction of apoptosis in human MCF7 cells assessed as downregulation of Bcl-2 mRNA level at 12.76 +/- 0.46 uM by quantitative real-time PCR method; assay type: functional, cell-based

Compound	IC50 (MCF7 [1]) [µM]	IC50 (HL-60) [µM]	IC50 (NALM-6) [µM]	other results
C=C1C(=O)Oc2c(OC)cccc2[C@H]1[C@@H]1Cc2ccccc2C1=O (relative stereo)	8.57	5.56	4.66	–
C=C1C(=O)Oc2ccc(Cl)cc2[C@H]1[C@@H]1CCCC1=O (relative stereo)	23	514	> 1000	–
C=C1C(=O)Oc2ccccc2[C@H]1[C@@H]1Cc2ccccc2C1=O	17	247	705	–
C=C1C(=O)Oc2ccc(Cl)cc2C1CC(C)=O (configuration not stated)	16.3	289	427	–
C=C1C(=O)Oc2ccc(Cl)cc2[C@H]1[C@@H]1Cc2ccccc2C1=O (relative stereo)	15.2	7.48	6.56	–
C=C1C(=O)Oc2ccccc2[C@H]1[C@@H]1CCCC1=O	14.7	578	488	–
C=C1C(=O)Oc2ccc(Cl)cc2[C@H]1[C@@H]1CCc2cc(OC)ccc2C1=O (relative stereo)	77.5	5.67	1.59	–
C=C1C(=O)Oc2ccccc2C1CC(C)=O (configuration not stated)	11.5	84.1	94.4	–
C=C1C(=O)Oc2c(OC)cccc2[C@H]1[C@@H]1CCCCC1=O (relative stereo)	8.75	6.06	4.14	Ratio IC50 [2]: 5; Activity (MCF7 [3]): 52.5%; Ratio IC50 [4]: 5; Activity (MCF7 [5]): 2.2%; Activity (MCF7 [6]): Active; Ratio IC50 [7]: 2; Activity (MCF7 [8]): 28.7%; Activity (MCF7 [9]): Active; Activity (MCF7 [10]): 47.5%; IC50 (HUVEC): 4.7 µM; IC50 (MCF-10A): 16.4 µM; Activity (MCF7 [11]): 5%; Activity (MCF7 [12]): 29.7%; Activity (MCF7 [13]): 17.9%; Activity (MCF7 [14]): 16.5%; Activity (MCF7 [15]): 36%; Activity (MCF7 [16]): 64%; IC50 (MCF7 [17]): 12.8 µM; Activity (MCF7 [18]): Active
C=C1C(=O)Oc2ccccc2[C@H]1[C@@H]1Cc2cc(OC)ccc2C1=O (relative stereo)	77.6	5.48	0.65	–
C=C1C(=O)Oc2ccccc2[C@H]1[C@@H]1CCc2cc(OC)ccc2C1=O (relative stereo)	76.5	5.29	0.51	–
C=C1C(=O)Oc2c(OC)cccc2[C@H]1[C@@H]1CCCC1=O (relative stereo)	15	711	784	–
C=C1C(=O)Oc2c(OC)cccc2C1CC(C)=O (configuration not stated)	10.5	90.9	73.2	–
C=C1C(=O)Oc2ccccc2[C@H]1[C@@H]1CCCCC1=O	8	629	85.6	–
C=C1C(=O)Oc2c(OC)cccc2[C@H]1[C@@H]1CCc2cc(OC)ccc2C1=O (relative stereo)	17.5	3.61	0.87	IC50 (HUVEC): 4.87 µM; IC50 (MCF-10A): 13.6 µM
C=C1C(=O)Oc2ccccc2[C@H]1[C@@H]1COCCC1=O (relative stereo)	26.3	42.7	13.6	–
C=C1C(=O)Oc2ccc(Cl)cc2[C@H]1[C@@H]1CCCCC1=O (relative stereo)	3.45	84.9	94.6	–
